From patent US10597388B2, “Pyridazinone herbicides” (FMC CORPORATION, priority 2014, dated 2020)

Legend:
Assay in all cases: Test D controlled growth environment herbicide test, pre- and postemergence
Assay type in all cases: in vivo
[1] = tested on: barley, winter (winter barley, Hordeum vulgare)
Summary of the method: (§1)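 Pre-emergence: seeds sown in silt loam soil were sprayed with compound in a non-phytotoxic solvent mix containing surfactant. Post-emergence: plants at 2 to 18 cm (1- to 4-leaf stage) in peat moss/vermiculite medium got the same formulation. Visual 0–100 rating versus controls after 14 to 21 d.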

[2] = tested on: oat, wild (wild oat, Avena fatua)
Summary of the method: as §1

[3] = tested on: field violet (Viola arvensis)
Summary of the method: as §1

[4] = tested on: field poppy (Papaver rhoeas)
Summary of the method: as §1

[5] = tested on: wheat, spring (spring wheat, Triticum aestivum)
Summary of the method: as §1

[6] = tested on: chickweed (common chickweed, Stellaria media)
Summary of the method: as §1

[7] = tested on: canarygrass (Phalaris minor)
Summary of the method: as §1

[8] = tested on: bluegrass (annual bluegrass, Poa annua)
Summary of the method: as §1

[9] = tested on: Russian thistle (Salsola kali)
Summary of the method: as §1

[10] = tested on: radish, wild (wild radish, Raphanus raphanistrum)
Summary of the method: as §1

[11] = tested on: wheat, winter (winter wheat, Triticum aestivum)
Summary of the method: as §1

[12] = tested on: barley, spring (spring barley, Hordeum vulgare)
Summary of the method: as §1

[13] = tested on: lambsquarters (Chenopodium album)
Summary of the method: as §1

[14] = Postemergence, 31 g ai/ha, scale 0 to 100 (0 no effect, 100 complete control)
[15] = Postemergence, 125 g ai/ha, visual rating on scale 0 (no effect) to 100 (complete control), 14 to 21 d
[16] = Postemergence, 250 g ai/ha, scale 0 to 100 (0 no effect, 100 complete control)
[17] = Preemergence, 62 g ai/ha, scale 0 to 100 (0 no effect, 100 complete control)
[18] = Preemergence, 125 g ai/ha, scale 0 to 100 (0 no effect, 100 complete control)
[19] = Preemergence, 250 g ai/ha, scale 0 to 100, 0 no effect, 100 complete control
[20] = postemergence, 62 g ai/ha, scale 0 to 100, 0 no effect, 100 complete control

Cc1ccc2sc(Br)c(-c3c(O)c(C)nn(C)c3=O)c2c1 [Compound 79]
Barley, Winter plant response rating [1, 14]: 0 | Plant response rating, Barley, Winter [1, 15]: 0 | Plant response rating, Barley, Winter [1, 16]: 5 | Plant response rating (scale of 0 to 100), Barley, Winter ([1]; Preemergence, 31 g ai/ha): 0 | Plant response rating, Barley, Winter [1, 17]: 0 | Plant response rating, Barley, Winter [1, 18]: 0 | Plant response rating, Barley, Winter [1, 19]: 10 | Plant response rating, Barley, Winter [1, 20]: 0 | Oat, Wild plant response rating [2, 14]: 70 | Plant response rating, Oat, Wild [2, 15]: 80 | Plant response rating, Oat, Wild [2, 16]: 85 | Plant response rating (scale of 0 to 100), Oat, Wild ([2]; Preemergence, 31 g ai/ha): 80 | Plant response rating, Oat, Wild [2, 17]: 80 | Plant response rating, Oat, Wild [2, 18]: 85 | Plant response rating, Oat, Wild [2, 19]: 90 | Plant response rating, Oat, Wild [2, 20]: 70 | Field Violet plant response rating [3, 14]: 75 | Plant response rating, Field Violet [3, 15]: 85 | Plant response rating, Field Violet [3, 16]: 95 | Plant response rating (scale of 0 to 100), Field Violet ([3]; Preemergence, 31 g ai/ha): 80 | Plant response rating, Field Violet [3, 17]: 85 | Plant response rating, Field Violet [3, 18]: 98 | Plant response rating, Field Violet [3, 19]: 100 | Plant response rating, Field Violet [3, 20]: 75 | Field Poppy plant response rating [4, 14]: 75 | Plant response rating, Field Poppy [4, 15]: 95 | Plant response rating, Field Poppy [4, 16]: 98 | Plant response rating (scale of 0 to 100), Field Poppy ([4]; Preemergence, 31 g ai/ha): 100 | Plant response rating, Field Poppy [4, 17]: 100 | Plant response rating, Field Poppy [4, 18]: 100 | Plant response rating, Field Poppy [4, 19]: 100 | Plant response rating, Field Poppy [4, 20]: 85 | Wheat, Spring plant response rating [5, 14]: 0 | Plant response rating, Wheat, Spring [5, 15]: 0 | Plant response rating, Wheat, Spring [5, 16]: 5 | Plant response rating (scale of 0 to 100), Wheat, Spring ([5]; Preemergence, 31 g ai/ha): 0 | Plant response rating, Wheat, Spring [5, 17]: 0 | Plant response rating, Wheat, Spring [5, 18]: 0 | Plant response rating, Wheat, Spring [5, 19]: 0 | Plant response rating, Wheat, Spring [5, 20]: 0 | Chickweed plant response rating [6, 14]: 95 | Plant response rating, Chickweed [6, 15]: 100 | Plant response rating, Chickweed [6, 16]: 100 | Plant response rating (scale of 0 to 100), Chickweed ([6]; Preemergence, 31 g ai/ha): 100 | Plant response rating, Chickweed [6, 17]: 100 | Plant response rating, Chickweed [6, 18]: 100 | Plant response rating, Chickweed [6, 19]: 100 | Plant response rating, Chickweed [6, 20]: 95 | Canarygrass plant response rating [7, 14]: 5 | Plant response rating, Canarygrass [7, 15]: 40 | Plant response rating, Canarygrass [7, 16]: 45 | Plant response rating (scale of 0 to 100), Canarygrass ([7]; Preemergence, 31 g ai/ha): 45 | Plant response rating, Canarygrass [7, 17]: 60 | Plant response rating, Canarygrass [7, 18]: 75 | Plant response rating, Canarygrass [7, 19]: 85 | Plant response rating, Canarygrass [7, 20]: 20 | Bluegrass plant response rating [8, 14]: 5 | Plant response rating, Bluegrass [8, 15]: 10 | Plant response rating, Bluegrass [8, 16]: 15 | Plant response rating (scale of 0 to 100), Bluegrass ([8]; Preemergence, 31 g ai/ha): 10 | Plant response rating, Bluegrass [8, 17]: 10 | Plant response rating, Bluegrass [8, 18]: 25 | Plant response rating, Bluegrass [8, 19]: 35 | Plant response rating, Bluegrass [8, 20]: 10 | Russian Thistle plant response rating [9, 14]: 50 | Plant response rating, Russian Thistle [9, 15]: 55 | Plant response rating, Russian Thistle [9, 16]: 65 | Plant response rating (scale of 0 to 100), Russian Thistle ([9]; Preemergence, 31 g ai/ha): 0 | Plant response rating, Russian Thistle [9, 17]: 70 | Plant response rating, Russian Thistle [9, 18]: 75 | Plant response rating, Russian Thistle [9, 19]: 100 | Plant response rating, Russian Thistle [9, 20]: 55 | Radish, Wild plant response rating [10, 14]: 0 | Plant response rating, Radish, Wild [10, 15]: 0 | Plant response rating, Radish, Wild [10, 16]: 65 | Plant response rating (scale of 0 to 100), Radish, Wild ([10]; Preemergence, 31 g ai/ha): 25 | Plant response rating, Radish, Wild [10, 17]: 25 | Plant response rating, Radish, Wild [10, 18]: 45 | Plant response rating, Radish, Wild [10, 19]: 55 | Plant response rating, Radish, Wild [10, 20]: 0 | Wheat, Winter plant response rating [11, 14]: 0 | Plant response rating, Wheat, Winter [11, 15]: 0 | Plant response rating, Wheat, Winter [11, 16]: 0 | Plant response rating (scale of 0 to 100), Wheat, Winter ([11]; Preemergence, 31 g ai/ha): 0 | Plant response rating, Wheat, Winter [11, 17]: 0 | Plant response rating, Wheat, Winter [11, 18]: 0 | Plant response rating, Wheat, Winter [11, 19]: 0 | Plant response rating, Wheat, Winter [11, 20]: 0 | Barley, Spring plant response rating [12, 14]: 0 | Plant response rating, Barley, Spring [12, 15]: 5 | Plant response rating, Barley, Spring [12, 16]: 10 | Plant response rating (scale of 0 to 100), Barley, Spring ([12]; Preemergence, 31 g ai/ha): 0 | Plant response rating, Barley, Spring [12, 17]: 0 | Plant response rating, Barley, Spring [12, 18]: 0 | Plant response rating, Barley, Spring [12, 19]: 0 | Plant response rating, Barley, Spring [12, 20]: 5 | Lambsquarters plant response rating [13, 14]: 85 | Plant response rating, Lambsquarters [13, 15]: 90 | Plant response rating, Lambsquarters [13, 16]: 100 | Plant response rating (scale of 0 to 100), Lambsquarters ([13]; Preemergence, 31 g ai/ha): 100 | Plant response rating, Lambsquarters [13, 17]: 100 | Plant response rating, Lambsquarters [13, 18]: 100 | Plant response rating, Lambsquarters [13, 19]: 100 | Plant response rating, Lambsquarters [13, 20]: 80
